Data reported in patent US20040039052A1, “Urinary incontinence therapy” (priority 1997, published 2004).

Tests used:
bladder afferents = conditions: rats; intravesicular 10-100 μmol; cited from earlier work
[1] = tested on: vanilloid receptor-mediated release of tachykinins in the rat urinary bladder; conditions: rat urinary bladder; cited from earlier work
[2] = tested on: patients having bladder hyperactivity; test: 14-patient study: single intravesical RTX instillation; fill cystometry (MCC), urination diary; type: in vivo, human; conditions: for Bladder Capacity, % Change / Bladder Capacity, Change from Pre-RTX: Bladder Capacity <200 mL; for Bladder Capacity, % Change / Bladder Capacity, Change from Pre-RTX / Bladder Capacity: n 7; for Mean Incontinent Episodes/day, % Change / Mean Incontinent Episodes/day, Difference from Pre-RTX / Mean Incontinent Episodes/day: n = 8; for Mean incontinent episodes: Pre-RTX 2.1; for Mean bladder capacity: Pre-RTX 182; for Bladder Capacity: patients with Bladder Capacity <200 mL, Pre-RTX 86; for Mean Incontinent Episodes/day: Pre-RTX 3.6
Excerpt: Clinical studies reported herein include the following: observations from the patient's urination diary and their overall assessment of bladder function, maximum cystometric capacity of the bladder, and daily urinary frequency and incontinence episodes. […] Useful and effective treatment is that which alleviates any of the symptoms associated with neurogenic urinary dysfunction.
Patients chosen for study were of either sex, between the ages of 30 and 75, and weighing between 60 kg and 110 kg. Patients were selected having bladder hyperactivity associated with spinal cord injury, multiple sclerosis, peripheral neuropathy, muscular dystrophy or bladder instability. Pregnant women were excluded from the study as were those exposed to any other investigational drug within 30 days of baseline, those exposed to drugs affecting bladder performance or detrusor function within 10 days of baseline, those with known chemical addiction, those with seizure activity or major psychiatric disorders, and those with clinically significant cardiovascular, renal or hepatic disease, upper respiratory disease, malignant disease or clinically significant abnormal clinical laboratory values. Patients taking anti-cholinergic drugs were generally excluded except in a rare instance at the discretion of the investigator, in which case the dosage of anti-cholinergic drug was not changed during the study. Patients previously treated with capsaicin were first monitored to insure a return to baseline parameters in the absence of capsaicin. Preliminary studies to determine RTX dosage efficacy were performed with patients who had previous experience with intravesical capsaicin administration for treatment of bladder hyperactivity. Once a dose range for the study was determined, both previously capsaicin-treated and -untreated patients were employed.
(§1) The molecular weight of RTX is 628.72 for the clinical studies described herein. A 10 μM stock solution, 6.3 μg/mL was prepared by dissolving 6.32 mg of 99.5% pure RTX in 1000 mL absolute ethanol. Solutions for therapeutic use were diluted from the ethanolic stock solution into sterile normal saline (0.9% w/v NaCl) or a saline-ethanol mixture such that the final solution was 10% (v/v) ethanol. Therapeutic efficacy was tested for RTX concentrations of 1 μM, 0.1 μM and 0.05 μM. […] Prior to administration, RTX solutions were sterilized by filtration.
Fill cystometry: A two-way 8 F urethral catheter was inserted in the bladder under clean conditions. The residual urine was emptied. Infusion of saline at body temperature was started at a constant speed of […]. Patients were asked to indicate the moment of first desire to void (FDV) and any other sensation. The infusion was stopped at compulsive desire to void and the infused volume taken as the maximal cystometric capacity (MCC). Bladder pressure at which MCC occurs was also recorded. A prophylactic antibiotic (ciprofloxacin, 500 mg every 8 hours) was given during the next 48 hours.
Ice-Water test: The patient was clean catheterized with a two-way urethral catheter. A volume of 50 ml of iced saline (or half of the MCC found in cystometry) was put in a catheter-irrigating syringe and injected into the bladder during a period of 20 seconds. Bladder pressure was constantly measured. The test was considered positive (abnormal) if an involuntary bladder contraction was recorded during the next 60 seconds.
RTX Instillation: An 18 or 20 F three-way Foley catheter was used. The balloon was inflated to 20 ml and maintained gently pulled against the bladder neck to reduce leakage of RTX.
Up to 100 mL RTX solution was introduced into an emptied bladder, retained in the bladder for 30 minutes, then the bladder was emptied and rinsed with normal saline. Prior to treatment, baseline measurements of MCC, micturition frequency and ice water test response made. […]
Patients 1, 2, 6, 7, 8 and 13 received 0.05 μM RTX. The rest received 0.1 μM RTX. […]

[3] = solubility and stability of RTX solutions; type: physicochemical
Procedure: as §1
However, the compounds are soluble in ethanol. Pure ethanol cannot be instilled into the bladder because it causes severe pain and irritation of the bladder mucosa. […] The foregoing solution, after filter sterilization, can be directly instilled into the urinary bladder. A typical instillation volume is 100 ml, although it is possible to instill somewhat larger or smaller volumes, as is understood in the art.

rats = conditions: cited from earlier work
[4] = day 14, Frequency ≧ 10/day, n = 7
[5] = day 14, Incontinence > episode/day
[6] = day 14, intent-to-treat, n = 14
[7] = day 30, Frequency ≧ 10/day, n = 7
[8] = day 30, Incontinence > episode/day
[9] = day 30, intent-to-treat, n = 14
[10] = day 60, Frequency ≧ 10/day, n = 7
[11] = day 60, Incontinence > episode/day
[12] = day 60, intent-to-treat, n = 14
[13] = day 90, Frequency ≧ 10/day, n = 7
[14] = day 90, Incontinence > episode/day
[15] = day 90, intent-to-treat, n = 14
[16] = patients able to do spontaneous micturitions

## C=C(C)[C@]12C[C@@H](C)[C@@]34O[C@](Cc5ccccc5)(O[C@@H]1[C@@H]3C=C(COC(=O)Cc1ccc(O)c(OC)c1)C[C@]1(O)C(=O)C(C)=C[C@@H]41)O2 [RTX, resiniferatoxin]
Bladder afferents
  desensitization of bladder afferents: long-lasting desensitization of bladder afferents
[1]
  desensitization to repeated doses: Desensitization to repeated doses of RTX was observed
  potency relative to CAP: 1000 times
[2]; 14-patient study
  patients with meaningful effects, decreases in frequency, urge or wetness: 71%
[2]; Patient #10 (spinal cord injury), 100 μM RTX instillation, day 14, Baseline MCC 80 ml
  MCC: 500 mL
[2]; Patient #10, 100 μM RTX instillation, before treatment incontinence episodes more than 7 times per day
  leaks on the worst day: 2-3 times per day
[2]; after RTX (0.1 μM), no improvement during placebo
  incontinence episodes, Case #11: substantially decreased incontinence episodes
[2]; all patients, noted by a few patients during the first minutes of the treatment
  symptoms evoked by RTX instillation: itching or mild discomfort were the only symptoms evoked by RTX
[2]; between days 14 and 30 post-treatment, 0.05 μM, prior: at least once between catheterizations
  incontinence episodes, Case #7: only one incontinence episode
[2]; day 14
  Bladder Capacity, % Change: +224%
  Bladder Capacity, Change from Pre-RTX: +193 mLs
[2]; [4]
  Mean Frequency/day, % Change: −34%
  Mean Frequency/day, Change from Pre-RTX: -5.3 day⁻¹
[2]; [5]
  Mean Incontinent Episodes/day, % Change: −44%
  Mean Incontinent Episodes/day, Difference from Pre-RTX: -1.6 day⁻¹
[2]; day 14, intent-to-treat analysis, n = 14, Pre-RTX 9.1
  Mean Frequency/day: 6.9 day⁻¹
[2]; [6]
  Mean Frequency/day, Difference from pre-RTX: -2.2 day⁻¹
  Mean bladder capacity, Difference from pre-RTX: 95 mL
  Mean incontinent episodes, Difference from pre-RTX: −1.0
  Mean incontinent episodes: 1.0
  Mean bladder capacity: 277 mL
[2]; day 14, single instillation 0.05 or 0.1 μM
  Bladder Capacity: 279 mLs
[2]; day 14, patients with Frequency ≧ 10/day, n = 7, Pre-RTX 15.7
  Mean Frequency/day: 10.4 day⁻¹
[2]; day 14, patients with Incontinence > episode/day
  Mean Incontinent Episodes/day: 2.0 day⁻¹
[2]; day 30
  Bladder Capacity, % Change: +156%
  Bladder Capacity, Change from Pre-RTX: +134 mLs
  Bladder Capacity: 220 mLs
[2]; [7]
  Mean Frequency/day, % Change: −28%
  Mean Frequency/day, Change from Pre-RTX: -4.4 day⁻¹
[2]; day 30, Frequency ≧ 10/day, n = 7, Pre-RTX 15.7
  Mean Frequency/day: 11.3 day⁻¹
[2]; [8]
  Mean Incontinent Episodes/day, % Change: −64%
  Mean Incontinent Episodes/day, Difference from Pre-RTX: -2.3 day⁻¹
  Mean Incontinent Episodes/day: 1.3 day⁻¹
[2]; [9]
  Mean Frequency/day, Difference from pre-RTX: -1.6 day⁻¹
  Mean bladder capacity, Difference from pre-RTX: 64 mL
  Mean incontinent episodes, Difference from pre-RTX: −1.4
  Mean incontinent episodes: 0.7
  Mean bladder capacity: 247 mL
[2]; day 30, intent-to-treat, n = 14, Pre-RTX 9.1
  Mean Frequency/day: 7.5 day⁻¹
[2]; day 60
  Bladder Capacity, % Change: +159%
  Bladder Capacity, Change from Pre-RTX: +137 mLs
  Bladder Capacity: 223 mLs
[2]; [10]
  Mean Frequency/day, % Change: −34%
  Mean Frequency/day, Change from Pre-RTX: -5.3 day⁻¹
[2]; day 60, Frequency ≧ 10/day, n = 7, Pre-RTX 15.7
  Mean Frequency/day: 10.4 day⁻¹
[2]; [11]
  Mean Incontinent Episodes/day, % Change: −67%
  Mean Incontinent Episodes/day, Difference from Pre-RTX: -2.4 day⁻¹
  Mean Incontinent Episodes/day: 1.2 day⁻¹
[2]; [12]
  Mean Frequency/day, Difference from pre-RTX: -2.1 day⁻¹
  Mean bladder capacity, Difference from pre-RTX: 45 mL
  Mean incontinent episodes, Difference from pre-RTX: −1.7
  Mean incontinent episodes: 0.4
  Mean bladder capacity: 228 mL
[2]; day 60, intent-to-treat, n = 14, Pre-RTX 9.1
  Mean Frequency/day: 7.0 day⁻¹
[2]; day 90
  Bladder Capacity, Change from Pre-RTX: +191 mLs
  Bladder Capacity: 277 mLs
[2]; [13]
  Mean Frequency/day, % Change: −31%
  Mean Frequency/day, Change from Pre-RTX: -4.9 day⁻¹
[2]; day 90, Frequency ≧ 10/day, n = 7, Pre-RTX 15.7
  Mean Frequency/day: 10.8 day⁻¹
[2]; [14]
  Mean Incontinent Episodes/day, % Change: −58%
  Mean Incontinent Episodes/day, Difference from Pre-RTX: -2.1 day⁻¹
  Mean Incontinent Episodes/day: 1.5 day⁻¹
[2]; [15]
  Mean Frequency/day, Difference from pre-RTX: -2.6 day⁻¹
  Mean bladder capacity, Difference from pre-RTX: 148 mL
  Mean incontinent episodes, Difference from pre-RTX: −1.5
  Mean incontinent episodes: 0.6
  Mean bladder capacity: 330 mL
[2]; day 90, intent-to-treat, n = 14, Pre-RTX 9.1
  Mean Frequency/day: 6.2 day⁻¹
[2]; eight evaluable patients with more than one incontinent episode/day
  positive benefit on incontinent episodes: only one did not show a positive benefit
[2]; out of the 14 patients
  patients in whom bladder capacity (MCC) increased: 11
[2]; [16]
  duration of decreased frequency post-treatment: up to 60 days
  improvement in MCC: All patients in the group but one (#1) showed clear improvement (increase) in MCC
[2]; patients requiring self-catheterization or supra-pubic maneuvers (#4, 5, 7, 8 and 11)
  reported improvement after RTX administration: all but one (#4) reported improvement
[2]; patients who were entirely incontinent (#3, 4, 6, 9, 12, 13 and 14)
  full continence after RTX instillation: five (#3, 6 and 9, 12 and 13) achieved full continence
[2]; single instillation
  duration of effect of a single instillation: up to 6 months
[3]; absolute ethanol, stored in the dark, preferably refrigerated
  stability of stock solution: stably maintained
[3]; completely aqueous medium, therapeutic dose
  solubility in water: insufficiently soluble in water
[3]; ethanolic stock and dilutions in saline, 10% (v/v) ethanol, 4° C., shielded from light
  stability of solutions: stable under refrigeration (4° C.) shielded from light
[3]; normal saline, not greater than 20% (v/v) ethanol
  solubility after dilution of ethanolic solution into aqueous medium: RTX remains in solution
rats
  pain upon intravesical administration: pain induced by intravesical administration of RTX
